pIC50: −log10 of the molar value. Where two headings read alike, the source gives them in different places.
Key:
FGFR1 = target: T1, FGFR1 (Homo sapiens, UniProt P11362); assay: FGFR1 kinase activity inhibition assay (LanthaScreen TR-FRET); assay type: biochemical; conditions: for IC50: FGFR1 kinase, TR-FRET, read-out: IC50 (nM) FGFR1
T1 construct: cytoplasmic domain [398-822 (terminal) amino acids]; purchased Carna 08-133
Protocol: (§1) PV3552) and 10 mM EDTA were added to quench the kinase reaction, and incubated at 22°C for 60 minutes. • ⑤ The reaction was measured using a PerkinElmer EnVision multimode plate reader through TR-FRET dual wavelength detection. • 1. The RFU values were copied from the Envision program. • 2. The ratio of RFU 520nm/RFU 495nm was calculated. • 3. The value of the ratio was converted to a percentage inhibition value. % Inhibition = (max-data)/(max-min) × 100 [formula] "Min" represents the ratio of the control without enzyme, "max" represents the ratio of the DMSO control, and "data" represents the ratio of the compounds in wells with different concentrations. […] "Top" refers to the maximum response, "Bottom" refers to the minimum response, and "HillSlope" refers to the slope of the curve.

FGFR3 = target: T2, FGFR3 (Homo sapiens, UniProt P22607); assay: FGFR3 kinase activity inhibition assay (LanthaScreen TR-FRET); assay type: biochemical; conditions: for IC50: FGFR3 kinase, TR-FRET, read-out: IC50 (nM) FGFR3; for Selectivity (X) FGFR1/FGFR3: ratio of IC50 FGFR1/FGFR3, selectivity towards FGFR3
T2 construct: FGFR3's cytoplasmic domain [436-806 (terminal) amino acids]; purchased Carna 08-135
T2 sequence (P22607 436-806): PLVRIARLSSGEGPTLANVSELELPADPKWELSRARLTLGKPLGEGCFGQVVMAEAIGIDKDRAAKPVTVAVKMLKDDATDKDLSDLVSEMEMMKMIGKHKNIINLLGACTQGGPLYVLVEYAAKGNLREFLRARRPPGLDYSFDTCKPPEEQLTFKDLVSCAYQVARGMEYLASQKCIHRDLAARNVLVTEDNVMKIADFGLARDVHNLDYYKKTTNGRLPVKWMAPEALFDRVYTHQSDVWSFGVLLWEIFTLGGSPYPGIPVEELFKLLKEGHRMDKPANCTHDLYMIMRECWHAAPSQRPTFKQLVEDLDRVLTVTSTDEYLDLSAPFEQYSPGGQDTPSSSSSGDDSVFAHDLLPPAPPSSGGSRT
Protocol: as §1, with “curve. According to the same method as that in the FGFR1 kinase activity inhibition assay, the inhibitory activities against FGFR2, FGFR3 and FGFR4 were tested using FGFR2's cytoplasmic domain [399-821 (terminal) amino acids] (Carna: 08-134), FGFR3's cytoplasmic domain [436-806 (terminal) amino acids] (Carna: 08-135) and FGFR4's cytoplasmic domain [460-802 (terminal) amino acids] (Carna: 08-136), respectively. […]” for “curve.”

T1 sequence (P11362 398-822): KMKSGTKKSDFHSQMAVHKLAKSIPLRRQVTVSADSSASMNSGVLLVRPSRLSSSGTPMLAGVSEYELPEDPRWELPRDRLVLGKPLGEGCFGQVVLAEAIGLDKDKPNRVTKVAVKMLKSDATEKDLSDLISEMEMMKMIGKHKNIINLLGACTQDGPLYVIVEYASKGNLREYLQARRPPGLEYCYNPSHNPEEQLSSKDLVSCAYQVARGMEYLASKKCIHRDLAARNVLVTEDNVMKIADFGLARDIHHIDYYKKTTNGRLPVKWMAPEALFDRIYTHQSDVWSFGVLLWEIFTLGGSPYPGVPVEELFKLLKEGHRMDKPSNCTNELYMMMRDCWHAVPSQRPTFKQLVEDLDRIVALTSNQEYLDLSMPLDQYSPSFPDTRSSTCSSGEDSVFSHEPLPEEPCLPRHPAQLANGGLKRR

| Compound | IC50 (FGFR3) [nM] | also measured |
| --- | --- | --- |
| 7-methyl-5-(1-((3-(1-methyl-1H-pyrazol-4-yl)-1H-pyrazino[4,3-b]pyridin-5-yl)oxy)ethyl)pyridi no[3,4-b]pyrazine [Example 204] | < 1 | IC50 (FGFR1): 1 to 10 nM; Selectivity (X) FGFR1/FGFR3 (FGFR3): A (A represents 1 ≤ multiple X<20) |
| C[C@@H](Oc1cc(C#N)c2[nH]nc(-c3cnn(C)c3)c2c1)c1c(Cl)cncc1Cl [Example 8] | > 100 | IC50 (FGFR1): > 100 nM; Selectivity (X) FGFR1/FGFR3 (FGFR3): A (A represents 1 ≤ multiple X<20) |
| CCCn1cc(-c2n[nH]c3c(F)cc(O[C@H](C)c4c(Cl)cncc4Cl)cc23)cn1 [Example 10] | – | pIC50 (FGFR1): 7.00 to 8.00; pIC50 (FGFR3): 8.00 to 9.00; Selectivity (X) FGFR1/FGFR3 (FGFR3): A (A represents 1 ≤ multiple X<20) |
| CC(=O)N1CCC(n2cc(-c3n[nH]c4c(F)cc(O[C@H](C)c5c(Cl)cncc5Cl)cc34)cn2)CC1 [Example 13] | 1 to 10 | IC50 (FGFR1): 10 to 100 nM; Selectivity (X) FGFR1/FGFR3 (FGFR3): A (A represents 1 ≤ multiple X<20) |
| C[C@@H](Oc1cc(F)c2[nH]nc(-c3cnn(CC(N)=O)c3)c2c1)c1c(Cl)cncc1Cl [Example 16, (R)-2-(4-(5-(1-(3,5-dichloropyridin-4-yl)ethoxy)-7-fluoro-1H-indazol-3-yl)-1H-pyrazol-1-yl)acetamide] | 1 to 10 | IC50 (FGFR1): 10 to 100 nM; Selectivity (X) FGFR1/FGFR3 (FGFR3): A (A represents 1 ≤ multiple X<20) |
| C[C@@H](Oc1cc(F)c2[nH]nc(-c3cnn(CCC4CCOCC4)c3)c2c1)c1c(Cl)cncc1Cl [Example 18, (R)-5-(1-(3,5-dichloropyridin-4-yl)ethoxy)-7-fluoro-3-(1-(2-(tetrahydro-2H-pyran-4-yl)ethyl)-1H-pyrazol-4-yl)-1H-indazole] | – | pIC50 (FGFR1): 8.00 to 9.00; pIC50 (FGFR3): 8.00 to 9.00; Selectivity (X) FGFR1/FGFR3 (FGFR3): A (A represents 1 ≤ multiple X<20) |
| C[C@@H](Oc1cc(F)c2[nH]nc(-c3cnn(CC(=O)N4CCOCC4)c3)c2c1)c1c(Cl)cncc1Cl [Example 19, (R)-2-(4-(5-(1-(3,5-dichloropyridin-4-yl)ethoxy)-7-fluoro-1H-indazol-3-yl)-1H-pyrazol-1-yl)-1-morpholinoetha n-1-one] | 10 to 100 | IC50 (FGFR1): 10 to 100 nM; Selectivity (X) FGFR1/FGFR3 (FGFR3): A (A represents 1 ≤ multiple X<20) |
| Cc1ccc2ncccc2c1C(CO)Oc1ccc2[nH]nc(-c3cnn(C)c3)c2c1 (stereo not drawn) [Example 114, 2-((3-(1-methyl-1H-pyrazol-4-yl)-1H-indazol-5-yl)oxy)-2-(6-methylquinolin-5-yl)ethan-1-ol] | > 100 | – |
| Cc1ccc2ncccc2c1C(C)Sc1ccc2[nH]nc(-c3cnn(C)c3)c2c1 (stereo not drawn) [Example 115, 6-methyl-5-(1-((3-(1-methyl-1H-pyrazol-4-yl)-1H-indazol-5-yl)thio)ethyl)quinoline] | > 100 | – |
| Cc1ccc2ncccc2c1C(C)Oc1cnc2[nH]nc(-c3cnn(C)c3)c2c1 (stereo not drawn) [Example 117, 6-methyl-5-(1-((3-(1-methyl-1H-pyrazol-4-yl)-1H-pyrazino[3,4-b]pyridin-5-yl)oxy)ethyl)quinoline] | – | pIC50 (FGFR3): 7.00 to 8.00 |
| Cc1ccc2ncccc2c1C(=O)Oc1ccc2[nH]nc(-c3cnn(C)c3)c2c1 [Example 118] | 10 to 100 | – |
| Cc1ccc2ncccc2c1C(Oc1ccc2[nH]nc(-c3cnn(C)c3)c2c1)C(F)(F)F (stereo not drawn) [Example 121, 6-methyl-5-(2,2,2-trifluoro-1-((3-(1-methyl-1H-pyrazol-4-yl)-1H-indazol-5-yl)oxy)ethyl)quinoline] | > 100 | – |
| Cc1ccc(C(C)Oc2ccc3[nH]nc(-c4cnn(C)c4)c3c2)c2cccnc12 (stereo not drawn) [Example 123, 8-methyl-5-(1-((3-(1-methyl-1H-pyrazol-4-yl)-1H-indazol-5-yl)oxy)ethyl)qu inoline] | > 100 | – |
| CC(Oc1ccc2[nH]nc(-c3cnn(C)c3)c2c1)c1csc2ncccc12 (stereo not drawn) [Example 125, 3-(1-((3-(1-methyl-1H-pyrazol-4-yl)-1H-indazol-5-yl)oxy)ethyl)thi eno[2,3-b]pyridine] | 10 to 100 | – |
| Cc1ccc2ncccc2c1C(C)Oc1cc2c(-c3cnn(C)c3)n[nH]c2cn1 (stereo not drawn) [Example 131] | 1 to 10 | – |
| CC(Oc1ccc2[nH]nc(-c3cnn(C)c3)c2c1)c1cc(C(F)(F)F)cc2nccnc12 (stereo not drawn) [Example 137, 5-(1-((3-(1-methyl-1H-pyrazol-4-yl)-1H-indazol-5-yl)oxy)ethyl)-7-(trifluoromethyl)quinoxaline] | 10 to 100 | – |
| C#Cc1cc(C(C)Oc2ccc3[nH]nc(-c4cnn(C)c4)c3c2)c2nccnc2c1 (stereo not drawn) [Example 146, 7-ethynyl-5-(1-((3-(1-methyl-1H-pyrazol-4-yl)-1H-indazol-5-yl)oxy)ethyl)quinoxa line] | 1 to 10 | – |
| CC(Oc1ccc2[nH]nc(-c3cnn(C)c3)c2c1)c1cc(N(C)C)cc2ncccc12 (stereo not drawn) [Example 151] | 10 to 100 | – |
| CC(Oc1ccc2[nH]nc(-c3ccc(S(C)(=N)=O)nc3)c2c1)c1cccc2nccnc12 (stereo not drawn) [Example 152, imino(methyl)(5-(5-(1-(quinoxalin-5-yl)ethoxy)-1H-indazol-3-yl)pyridin-2-yl)-sulfanone] | 1 to 10 | – |
| CC(Oc1ccc2[nH]nc(-c3ccc(N4CCS(=N)(=O)CC4)nc3)c2c1)c1cccc2nccnc12 (stereo not drawn) [Example 153] | < 1 | – |
| CC(Oc1ccc2[nH]nc(-c3cnn(C4CCS(=N)(=O)CC4)c3)c2c1)c1cccc2nccnc12 (stereo not drawn) [Example 154, 1-imino-4-(4-(5-(1-(quinoxalin-5-yl)ethoxy)-1H-indazol-3-yl)-1H-pyrazol-1-yl)hexahydro-thiopyran 1-oxide] | 1 to 10 | – |
| CC(Oc1ccc2[nH]nc(-c3cnn(C)c3)c2c1)c1cc(C2CC2)cc2ncccc12 (stereo not drawn) [Example 164, 7-cyclopropyl-5-(1-((3-(1-methyl-1H-pyrazol-4-yl)-1H-indazol-5-yl)oxy)ethyl)qui noline] | 1 to 10 | – |
| Cc1ccc2ncccc2c1C(C)Oc1ccc2[nH]nc(-c3cn(C)nn3)c2c1 (stereo not drawn) [Example 165, 6-methyl-5-(1-((3-(1-methyl-1H-1,2,3-triazol-4-yl)-1H-indazol-5-yl)oxy)ethyl)qui noline] | 10 to 100 | – |
| C#Cc1ccc2ncccc2c1C(C)Oc1ccc2[nH]nc(-c3cnn(C)c3)c2c1 (stereo not drawn) [Example 166, 6-ethynyl-5-(1-((3-(1-methyl-lH-pyrazol-4-yl)-1H-indazol-5-yl)oxy)ethyl)quinoline] | – | pIC50 (FGFR3): 7.00 to 8.00 |
| CC(Oc1ccc2[nH]nc(-c3cnn(C)c3)c2c1)c1c(Cl)ccc2ncccc12 (stereo not drawn) [Example 167, 6-chloro-5-(1-((3-(1-methyl-1H-pyrazol-4-yl)-1H-indazol-5-yl)oxy)ethyl)qu inoline] | 10 to 100 | – |
| CC(Oc1ccc2[nH]nc(-c3cnn(C)c3)c2c1)c1c(C(F)(F)F)ccc2ncccc12 (stereo not drawn) [Example 172, 5-(1-((3-(1-methyl-1H-pyrazol-4-yl)-1H-indazol-5-yl)oxy)ethyl)-6-(trifluoromethyl)quinoline] | 10 to 100 | – |
| COc1cc(OC(C)c2nc(C)cc3nccnc23)cc2c(-c3cnn(C)c3)n[nH]c12 (stereo not drawn) [Example 231, 5-(1-((7-methoxy-3-(1-methyl-1H-pyrazol-4-yl)-1H-indazol-5-yl)oxy)ethyl)-7-methylpyrido[3,4-b]pyrazine] | 1 to 10 | – |
| CC(Oc1ccc2[nH]nc(-c3cnn(C)c3)c2c1)c1nc(C#N)cc2nccnc12 (stereo not drawn) [Example 235, 5-(1-((3-(1-methyl-1H-pyrazol-4-yl)-1H-indazol-5-yl)oxy)ethyl)pyridino[3,4-b]pyr azine-7-carbonitrile] | 10 to 100 | – |
